Experimental data reported in publication PMC11647907 (Journal of Medicinal Chemistry, 2024).

Legend:
PK study, oral 50 mg/kg = assay type: in vivo, ICR mice
ClpP in MOLM13 cells = ClpP in MOLM13 cells (Homo sapiens, UniProt Q16740); test: Cellular thermal shift assay; assay type: cell-based; conditions: 10 μM, 6 h, vs control group
ClpP [1] = biological target: T1, ClpP (Homo sapiens, UniProt Q16740); test: Biolayer interferometry; assay type: binding
HL60 cells [2] = test: HL60-disseminated leukemia model, survival; assay type: in vivo, NSG mice
ClpP in HL60 cells = ClpP in HL60 cells (Homo sapiens, UniProt Q16740); test: Cellular thermal shift assay; assay type: cell-based; conditions: 10 μM, 6 h, vs control group
ClpP in HL60 cells, sequence (Q16740 57-277): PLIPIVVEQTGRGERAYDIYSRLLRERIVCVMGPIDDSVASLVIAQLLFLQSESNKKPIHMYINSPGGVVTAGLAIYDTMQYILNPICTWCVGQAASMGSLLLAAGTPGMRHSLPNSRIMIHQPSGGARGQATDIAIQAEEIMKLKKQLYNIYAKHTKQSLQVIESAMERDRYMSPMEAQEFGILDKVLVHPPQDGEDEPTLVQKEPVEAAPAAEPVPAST

MOLM13 cells [3] = test: Mitochondrial membrane potential; assay type: cell-based; conditions: MOLM13, 10 nM, 48 h, vs DMSO group
MOLM13 cells [4] = test: Mitochondrial ROS; assay type: cell-based; conditions: MOLM13, 38 h
HL60 cells [5] = test: Mitochondrial membrane potential; assay type: cell-based; conditions: HL60, 10 nM, 48 h, vs DMSO group
MOLM13 cells [6] = test: Cell cycle analysis; assay type: cell-based; conditions: MOLM13, 24 h
[7] = Liver microsomal stability, human; assay type: in vitro ADME; conditions: human liver microsomes
[8] = system: SDHB and NDUFA12 in MOLM13 cells; test: Western blotting of respiratory chain proteins, MOLM13; assay type: cell-based; conditions: 36 h
MOLM13 cells [9] = test: MOLM13-disseminated leukemia model, survival; assay type: in vivo, NSG mice; conditions: 10 mg/kg, p.o, qd, 18 days
HL60 cells [10] = test: Mitochondrial ROS; assay type: cell-based; conditions: HL60, 5 nM, 38 h, vs DMSO group
HL60 cells [11] = test: Growth inhibition assay; assay type: cell-based
[12] = Liver microsomal stability, rat; assay type: in vitro ADME; conditions: rat liver microsomes
ClpP [13] = biological target: T1, ClpP; test: In vitro enzyme assay: ClpP peptidase activity with AC-WLA-AMC; assay type: biochemical; conditions: for EC50: EC50 (ClpP proteolytic activity), mean ± SD, n = 3
HL60 cells [14] = test: Cell cycle analysis; assay type: cell-based; conditions: 24 h
[15] = system: SDHB and NDUFA12 in HL60 cells; test: Western blotting of respiratory chain proteins, HL60; assay type: cell-based; conditions: 36 h
[16] = Liver microsomal stability, mice; assay type: in vitro ADME
[17] = female, ICR, mouse, plasma, po, 50 mg/kg

T1 sequence (Q16740 57-277): as above
ClpP in MOLM13 cells, sequence (Q16740 57-277): as above

Compound: C[C@@H]1CC2=C(CN1Cc1cccc(C#N)c1)C(=O)N(Cc1ccc(Br)cc1)C1=NCCN12 [CLPP-1071, (R)-3-((4-(4-Bromobenzyl)-8-methyl-5-oxo-1,2,4,5,8,9-hexahydroimidazo[1,2-a]pyrido[3,4-e]pyrimidin-7(6H)-yl)methyl)benzonitrile]
- AUC0–∞, times higher than that of ONC212 (PK study, oral 50 mg/kg; PO 50 mg/kg, mice): approximately 1.5 times
- AUC(0-inf) (PK study, oral 50 mg/kg; [17]): 9840 ± 990 ng·h/mL
- AUC(0-t) (PK study, oral 50 mg/kg; [17]): 9010 ± 1320 ng·h/mL
- Cmax (PK study, oral 50 mg/kg; [17]): 3420 ± 570 ng/mL
- MRT (PK study, oral 50 mg/kg; [17]): 2.61 ± 0.41 h
- Tmax (PK study, oral 50 mg/kg; [17]): 30 ± 25.8 min
- half-life (PK study, oral 50 mg/kg; [17]): 87 ± 19.8 min
- thermal stability of ClpP (CETSA) (ClpP in MOLM13 cells): effectively stabilized ClpP protein at higher temperatures
- Kd (ClpP [1]): 26.9 nM
- survival of female NSG mice (HL60 cells [2]; HL60 model, 5 and 10 mg/kg, p.o, qd, 19 days): dose-dependently extended the survival
- survival periods in mice (HL60 cells [2]; disseminated model, 5 mg/kg, stronger effects compared to 10 mg/kg ONC212): significantly prolonged survival periods
- thermal stability of ClpP (CETSA) (ClpP in HL60 cells): effectively stabilized ClpP protein at higher temperatures
- mitochondrial membrane potential (MMP) (MOLM13 cells [3]): significantly decreased MMP
- ROS levels (MOLM13 cells [4]): significant increase in the ROS levels
- mitochondrial membrane potential (MMP) (HL60 cells [5]): significantly decreased MMP
- percentage of cells arrested in G1 (MOLM13 cells [6]; higher dose (dose not given)): 73%
- percentage of cells arrested in G1 (MOLM13 cells [6]; lower dose (dose not given)): 65%
- Clapp [7]: 296 mL/min/kg
- Clh [7]: 19.3 mL/min/kg
- Eh (%) [7]: 93.5%
- half-life [7]: 13.7 min
- SDHB and NDUFA12 protein levels ([8]; MOLM13, 1 nM): decreased
- SDHB and NDUFA12 protein levels ([8]; MOLM13, 10 nM): mostly disappeared
- survival of female NSG mice (MOLM13 cells [9]): extended the survival
- ROS accumulation (HL60 cells [10]): pronounced elevation in ROS accumulation
- IC50 (HL60 cells [11]; read-out: HL60 IC50, HL60 cells, 72 h, mean ± SD, n = 3, listed as 52a): 4.61 ± 0.21 nM
- inhibition of proliferation of HL60 cells, fold stronger than ONC201 (HL60 cells [11]; vs ONC201): 169.2 fold
- Clapp [12]: 906 mL/min/kg
- Clh [12]: 52.0 mL/min/kg
- Eh (%) [12]: 94.3%
- half-life [12]: 6.89 min
- EC50 (ClpP [13]): 23.5 nM
- ClpP agonistic activity, fold stronger than ONC201 (ClpP [13]; vs ONC201): 107.1 fold
- percentage of cells arrested in G1 (HL60 cells [14]; HL60, 10 nM): 50%
- percentage of cells arrested in G1 (HL60 cells [14]; HL60, 100 nM): 60%
- SDHB and NDUFA12 protein levels ([15]; HL60, 1 nM): decreased
- SDHB and NDUFA12 protein levels ([15]; HL60, 10 nM): mostly disappeared

Compound: CC(c1ccccc1)N1CCC2=C(C1)C(=O)N(Cc1ccc(C(F)(F)F)cc1)C1=NCCN12 (stereo not shown) [compound 2]
- EC50 (ClpP [13]): 193 ± 18.9 nM

Compound: CC(c1ccc(C(F)(F)F)cc1)N1C(=O)C2=C(CCN(Cc3ccccc3)C2)N2CCN=C21 (stereo not shown) [compound 3]
- EC50 (ClpP [13]): 2659 ± 11.7 nM

Compound: CC1CN(Cc2ccccc2)CC2=C1N1CCN=C1N(Cc1ccc(C(F)(F)F)cc1)C2=O (stereo not shown) [compound 4]
- EC50 (ClpP [13]): 1410 ± 20.5 nM

Compound: CC1(C)CN(Cc2ccccc2)CC2=C1N1CCN=C1N(Cc1ccc(C(F)(F)F)cc1)C2=O [compound 5]
- EC50 (ClpP [13]): 1650 ± 84.5 nM

Compound: C[C@]12CC[C@H]3[C@@H](CCC4=CC(=O)CC[C@@]43C)[C@@H]1CC[C@@H]2O [testosterone, reference compound]
- Clapp ([16]; mice liver microsomes): 8634 mL/min/kg
- Clh ([16]; mice liver microsomes): 54.8 mL/min/kg
- Eh (%) ([16]; mice liver microsomes): 99.4%
- half-life ([16]; mouse, liver microsomes): 0.723 min
- Clapp [7]: 467 mL/min/kg
- Clh [7]: 19.8 mL/min/kg
- Eh (%) [7]: 95.8%
- Clapp [12]: 8634 mL/min/kg
- Clh [12]: 54.8 mL/min/kg
- Eh (%) [12]: 99.4%
- half-life [12]: 0.723 min
